# In US20110034472A1, “Novel Compounds for Treatment of Cancer and Disorders Associated With Angiogenesis Function” (UNIVERSITY OF SOUTHERN CALIFORNIA, priority 2004, published 2011):
# “Also recorded” adds a separate entry of the source. Structures can show the parent of a compound that is named as a salt. Where two headings read alike, the source gives them in different places.
# How the values were obtained:
# [1] = drugs with known mechanisms of cell cycle regulation; cited from earlier work
# MDA-MB-435 cells [2] = experiment: MTT assay, continuous drug exposure for 48 hours (Table 3); assay type: cell-based, human; settings: for IC80: MDA-MB-435, read-out: CC80
# [3] = system: HCT 116 p53^−/− colon cancer cells; experiment: MTT cytotoxicity assay, HCT 116 p53-/-; assay type: cell-based, human; settings: Homo sapiens, 72 h
# Excerpt: (§1) Human breast cancer cells MDA-MB-435 and colon cancer HT29, p53 mutant were purchased from the American Type Cell Culture (Manassas, Va.). The HCT116 P53^+/+ and HCT116 P53^−/− cells were kindly provided by Dr. Bert Vogelstein (Johns Hopkins Medical Institutions, Baltimore, Md.). Human prostate cancer cells, LNCaP, were kindly provided by Richard Cote (University of Southern California Keck School of Medicine). Cells were maintained as monolayer cultures in RPMI 1640 media supplemented with 10% fetal bovine serum (Gemini-Bioproducts, Woodland, Calif.) and 2 mmol/L L-glutamine at 37° C. in a humidified atmosphere of 5% CO2. To remove the adherent cells from the flask for passaging and counting, cells were washed with PBS without calcium or magnesium, incubated with a small volume of 0.25% trypsin-EDTA solution (Sigma-Aldrich, St. Louis, Mo.) for 5-10 min, and washed with culture medium and centrifuged. All experiments were performed using cells at exponential growth stage. Cells were routinely checked for mycoplasma contamination using a PCR-based assay (Stratagene, Cambridge, UK).
# (§2) Cytotoxicity was assessed by a 3-(4,5-dimethylthiazol-2-yl)-2,5-diphenyltetrazolium bromide (MTT) assay as previously described.^9 Briefly, cells were seeded in 96-well microtiter plates and allowed to attach. Cells were subsequently treated with continuous exposure to the corresponding drug for 72 h. An MTT solution (at a final concentration of 0.5 mg/mL) was added to each well, and cells were incubated for 4 h at 37° C. After removal of the medium, DMSO was added and the absorbance was read at 570 nm. All assays were done in triplicate. The IC50 was then determined for each drug from a plot of log (drug concentration) versus percentage of cells killed.
# [4] = system: human cancer cell lines (MDA-MB-435 and three colon cancer cells); experiment: MTT assay, panel of breast, colon and prostate cell lines (Example V); assay type: cell-based
# Protocol: All new compounds were tested in four human cancer cell lines, a breast cancer cell, MDA-MB-435, and three colon cancer cells.
# as §2
# [5] = system: HCT 116 p53^+/+ colon cancer cells; experiment: MTT cytotoxicity assay, HCT 116 p53+/+; assay type: cell-based, human; settings: Homo sapiens, 72 h
# Excerpt: as §1, §2
# HT29 colon cancer cells = experiment: MTT cytotoxicity assay, HT 29; assay type: cell-based, human; settings: Homo sapiens, 72 h
# Excerpt: as §1, §2
# [6] = system: MDA-MB-435 breast cancer cells; experiment: MTT cytotoxicity assay, MDA-MB-435; assay type: cell-based, human; settings: for IC50: Homo sapiens
# Protocol: (§3) The sensitivity of a panel of seven human cancer cell lines to SC144 was assessed by MTT-assay. […] The sensitivity towards SC144 was time- and dose-dependent.
# (§4) Cytotoxicity was assessed by a 3-(4,5-dimethylthiazol-2-yl)-2,5-diphenyltetrazolium bromide assay as previously described (Carmichael et al. (1987) Cancer Res. 47:936-42). Briefly, cells were seeded in 96-well microtiter plates (PC3 and DU145 at 5,000 cells/well and LNCaP at 10,000 cells/well; breast and ovarian cells at 4,000 cells/well) and allowed to attach. Cells were subsequently treated with a continuous exposure to the corresponding drug for 72 hours. A 3-(4,5-dimethylthiazol-2-yl)-2,5-diphenyltetrazolium bromide solution (at a final concentration of 0.5 mg/mL) was added to each well and cells were incubated for 4 hours at 37° C. After removal of the medium, DMSO was added and the absorbance was read at 570 nm. All assays were done in triplicate. The IC50 was then determined for each drug from a plot of log(drug concentration) versus percentage of cell kill.
# as §2
# [7] = system: MCF-7 breast cancer cells; experiment: MTT cytotoxicity assay, MCF-7; assay type: cell-based, human; settings: Homo sapiens, MCF7; MCF-7; 72 hours continuous exposure; read-out: IC50 values (mean ± SD)
# Protocol: as §3, §4
# [8] = system: PC3 prostate cancer cells; experiment: MTT cytotoxicity assay, PC3; assay type: cell-based; settings: Homo sapiens; PC3; 72 hours continuous exposure; read-out: IC50 values (mean ± SD)
# Protocol: as §3, §4
# DU145 cells = experiment: Annexin V/propidium iodide apoptosis assay, DU145; assay type: cell-based, human; settings: 72 hours exposure, IC80
# Protocol: FIG. 19 illustrates apoptosis analysis of DU145 cells treated with SC21 or CPT (IC80). Cells were treated with SC21 or CPT for 24, 48, and 72 h, harvested, stained with annexin V/propidium iodide and analyzed by flow cytometry. Untreated control cells (24 and 48 h) were also included in the analysis. Annexin VFITC signals are recorded in FL1-H or […] and propidium iodide in FL2-H or […]. Cells in the bottom left quadrant (annexin V-negative, propidium iodide-negative) are viable, whereas cells in the right quadrant (annexin V-positive, propidium iodide-negative) are in the early stages of apoptosis, and the cells in the top right quadrant (annexin V-positive, propidium iodide-positive) are in later stages of apoptosis and necrosis.
# To quantify drug-induced apoptosis, annexin V/propidium iodide staining was done followed by flow cytometry. […] The resulting fluorescence (FLH-1 channel for green fluorescence and FLH-2 channel for red fluorescence) was measured by flow cytometry using a FACScan flow cytometer (Becton Dickinson).
# SC21 and CPT-induced apoptosis was measured by flow cytometry (FIG. 18). SC21 at an IC80 dose for 72 hours induced 12% to 15% apoptosis as measured by calculating sub-G0/G1 population. […] This event precedes nuclear breakdown, DNA fragmentation, the appearance of most apoptosis-associated molecules, and is readily measured by annexin V binding assay. […]
# HEY ovarian cancer cells = experiment: MTT cytotoxicity assay, HEY; assay type: cell-based, human; settings: Homo sapiens; HEY; 72 hours continuous exposure; read-out: IC50 values (mean ± SD)
# Protocol: as §3, §4
# [9] = system: MDA-MB-468 breast cancer cells; experiment: MTT cytotoxicity assay, MDA-MB-468; assay type: cell-based; settings: Homo sapiens, 72 hours continuous exposure, read-out: IC50 values (mean ± SD)
# Protocol: as §3, §4
# [10] = system: DU145 prostate cancer cells; experiment: MTT cytotoxicity assay, DU145; assay type: cell-based; settings: Homo sapiens, DU-145, 72 hours continuous exposure, read-out: IC50 values (mean ± SD)
# Protocol: as §3, §4
# MDA-MB-435 cells [11] = experiment: Annexin V/PI apoptosis analysis, SC144 and CPT; assay type: cell-based, human; settings: 48 h; IC80
# Excerpt: Cells were stained with annexin V/PI and analyzed by flow cytometry. Cells in the bottom left quadrant of each panel (Annexin V-negative, PI-negative) are viable, whereas cells in the bottom right quadrant (Annexin V-positive, PI-negative) are in the early stages of apoptosis, and cells in the top right quadrant (Annexin V-positive, PI-positive) are in later stages of apoptosis and necrosis.
# An early event in apoptotic cell death is the translocation of the phosphatidyl-serine residues to the outer part of the cell membrane. This event precedes nuclear breakdown, DNA fragmentation, the appearance of most apoptosis-associated molecules, and is readily measured by annexin V binding assay. By this method, SC144 was compared with CPT.
# PC3 and DU145 cells = experiment: Apoptosis by sub-G0/G1 population (flow cytometry); assay type: cell-based, human; settings: IC80 dose for 72 hours
# Protocol: Apoptotic cell population increased with time in PC3 and DU145 treated with SC21 and CPT.
# SC21 and CPT-induced apoptosis was measured by flow cytometry (FIG. 18). SC21 at an IC80 dose for 72 hours induced 12% to 15% apoptosis as measured by calculating sub-G0/G1 population. […] An early event in apoptotic cell death is the translocation of the phosphatidyl-serine residues to the outer region of the cell membrane. This event precedes nuclear breakdown, DNA fragmentation, the appearance of most apoptosis-associated molecules, and is readily measured by annexin V binding assay. By this method, we compared SC21 with CPT.
# [12] = system: LNCaP prostate cancer cells; experiment: MTT cytotoxicity assay, LNCaP; assay type: cell-based; settings: Homo sapiens
# Protocol: as §4, §2
# human CYP3A4 = human CYP3A4 (Homo sapiens, UniProt P08684); experiment: Inhibition of human cDNA-expressed CYP3A4 (BFC metabolism); assay type: in vitro ADME; settings: BFC substrate, 37° C.
# Chain of human CYP3A4 (P08684 whole entry): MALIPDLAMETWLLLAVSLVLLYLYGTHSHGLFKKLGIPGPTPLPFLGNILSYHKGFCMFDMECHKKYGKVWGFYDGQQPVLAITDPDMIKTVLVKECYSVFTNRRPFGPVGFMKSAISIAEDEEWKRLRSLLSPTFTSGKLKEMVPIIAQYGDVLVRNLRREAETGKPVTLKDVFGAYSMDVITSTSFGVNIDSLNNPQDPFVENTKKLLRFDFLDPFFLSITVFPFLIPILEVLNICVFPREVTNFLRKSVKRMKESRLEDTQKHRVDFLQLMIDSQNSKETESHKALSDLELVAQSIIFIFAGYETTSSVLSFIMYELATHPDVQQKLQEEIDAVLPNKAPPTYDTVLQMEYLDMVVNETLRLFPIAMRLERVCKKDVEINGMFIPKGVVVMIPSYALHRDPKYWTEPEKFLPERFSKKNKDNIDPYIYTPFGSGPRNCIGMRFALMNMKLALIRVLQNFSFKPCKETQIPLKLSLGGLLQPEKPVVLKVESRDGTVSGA
# Protocol: The metabolism of fluorescent substrates by human cDNA-expressed CYP3A4 was assessed by incubation in 96 well plate at 37° C. Metabolism of 7-benzyloxy-4-trifluoromethylcoumarin (BFC) was assayed by measuring the production of the corresponding 7-hydroxy-4-trifluoro-methylcoumarin.
# The investigation of cytochrome P450 enzyme inhibition by potential drug candidates can aid in predicting drug-drug interactions and/or unfavorable PK profiles produced upon dosing.
# CEM or HEY cells = experiment: Cytotoxicity of salicylhydrazides (Table 5); assay type: cell-based; settings: Homo sapiens
# Excerpt: Human prostate cancer cells (PC3, p53 null, AR−; DU145, p53 mutant, AR−; and LNCaP, p53 wild-type, AR+) and breast cancer cells (MCF-7, overexpressed wild-type p53, ER+; MDA-MB-468, p53 mutant, […]; and MDA-MB-435, p53 mutant, ER−) were obtained from American Type Cell Culture (Manassas, Va.). The human ovarian carcinoma cell line (HEY) naturally resistant to cisplatin (CDDP) was kindly provided by Dr. Dubeau (University of Southern California Norris Cancer Center; Buick et al. (1985) Cancer Res. 45:3668-76 and Hamaguchi et al. (1993) Cancer Res. 53:5225-32). The results with CEM cells were previously described (Neamati et al. (1998) J. Med. Chem. 41:3202-9). Cells were maintained as monolayer cultures in RPMI 1640 supplemented with 10% fetal bovine serum (Gemini-Bioproducts, Woodland, Calif.) and 2 mmol/L L-glutamine at 37° C. in a humidified atmosphere of 5% CO2. To remove the adherent cells from the flask for passaging and counting, cells were washed with PBS without calcium or magnesium, incubated with a small volume of 0.25% trypsin-EDTA solution (Sigma-Aldrich, St. Louis, Mo.) for 5 to 10 minutes, and washed with culture medium and centrifuged. All experiments were done using cells in exponential cell growth.
# as §4
# cancer cells = experiment: Colony formation assay; assay type: cell-based; settings: doses ≧1 uM; hydrochloride
# Protocol: FIG. 32. […] (A) The IC50 values of SC161′ range from 0.3 to 4 uM in representative breast, colon, and prostate cell lines using MTT assay.
# Colony formation assays were also performed to confirm the activity of these compounds as described.^10 Briefly, cells were plated in 6-well plates at a density of 100 cells/well and allowed to attach. The next day, serial dilutions of the corresponding compounds were added and allowed to incubate for 24 h. After exposure, cells were washed in PBS and cultured in free media until colonies were formed (8-10 days). Cells were subsequently washed, fixed with a 1% glutaraldehyde solution for 30 min, and stained with a solution of crystal violet (2%) for 30 min. After staining, cells were thoroughly washed with water. Colonies were imaged on the Versa-Doc Imaging System (Bio-Rad) and counted using the Quantity One quantitation software package (Bio-Rad). The data reported represent means of at least three independent experiments.
# [13] = 72 hours continuous exposure, read-out: IC50 values (mean ± SD)
# [14] = hLNCaP, MTT, 72 h, read-out: IC50
smiles,measurement,setting,value
O=c1[nH]cc(F)c(=O)[nH]1 [5-Fluorouracil],Cell cycle profile,[1],S-phase
same,CC50,"MDA-MB-435 cells [2]; Homo sapiens, MDA-MB-435",29000 ± 10700 nM
same,IC80,MDA-MB-435 cells [2]; Homo sapiens,100000 ± 10 nM
"O=C(NNc1nc2ccccc2n2cccc12)C1CSCN1 (stereo not shown) [SC153, Thiazolidine-4-carboxylic acid N′-pyrrolo[1,2-a]quinoxalin-4-yl-hydrazide]",IC50,[3],10000 ± 2000 nM
same,activity against colon cancer lines,[4],moderately active
same,IC50,[5],15000 ± 3000 nM
same,IC50,HT29 colon cancer cells,14000 ± 1000 nM
same,melting point,,162 °C
same,activity against the breast cancer line,[6],inactive
same,IC50,"[6]; MTT, 72 h, read-out: IC50",> 20000 nM
"CC[C@@]1(O)C(=O)OCc2c1cc1n(c2=O)Cc2cc3ccccc3nc2-1 [CPT, Camptothecin, reference compound]",CC50,"MDA-MB-435 cells [2]; Homo sapiens, MDA-MB-435",30 ± 2 nM
same,IC80,MDA-MB-435 cells [2]; Homo sapiens,100 ± 2 nM
same,IC50,[7],30 ± 3 nM
same,IC50,[8],900 ± 210 nM
same,early plus late apoptotic cells,DU145 cells,59%
same,IC50,HEY ovarian cancer cells,35 ± 7 nM
same,IC50,[9],100 ± 2 nM
same,IC50,[10],25 ± 7 nM
same,IC50,[6]; [13],27 ± 2 nM
same,early-apoptotic cells,MDA-MB-435 cells [11],34%
same,late-apoptosis/necrosis,MDA-MB-435 cells [11],39%
same,apoptosis (sub-G0/G1 population),PC3 and DU145 cells,30%
same,IC50,[12]; [13],25 ± 6 nM
C=C/C=C(\C(=C)O)C(=O)N1N=C(C)/C(=C\c2cccc(O)c2)C1=O [SC24],CC50,MDA-MB-435 cells [2],240 ± 30 nM
same,IC80,MDA-MB-435 cells [2]; Homo sapiens,970 nM
same,inhibition of CYP3A4 activity,human CYP3A4,does not significantly inhibit CYP3A4 activity
same,IC50,CEM or HEY cells,130 nM
"O=C(NNc1nc2cccc(F)c2n2cccc12)c1cnccn1 [SC161′, N′-(9-Fluoropyrrolo[1,2-a]quinoxalin-4-yl)pyrazine-2-carbohydrazide hydrochloride]",activity in all cell lines,[4],highly active
same,IC50,"[4]; Homo sapiens, MDA-MB-435, representative breast, colon, and prostate cell lines, MTT assay, read-out: IC50 values range",300 to 4000 nM
same,colony formation,cancer cells,completely blocks colony formation; also recorded: completely abolished cell growth
"NC(CC(=O)NNc1nc2ccccc2n2cccc12)c1ccccc1Cl (stereo not shown) [SC160, 3-Amino-3-(2-chloro-phenyl)-propionic acid N′-pyrrolo[1,2-a]quinoxalin-4-yl-hydrazide]",IC50,[3],> 20000 nM
same,IC50,[5],> 20000 nM
same,IC50,HT29 colon cancer cells,17000 nM
same,IC50,"[6]; MTT, 72 h, read-out: IC50",> 20000 nM
same,IC50,[12]; [14],> 20000 nM
"NC(CC(=O)NNc1nc2ccccc2n2cccc12)c1ccc(Cl)cc1 (stereo not shown) [SC161, 3-Amino-3-(4-chloro-phenyl)-propionic acid N′-pyrrolo[1,2-a]quinoxalin-4-yl-hydrazide]",IC50,[3],300 ± 70 nM
same,IC50,[5],400 ± 10 nM
same,IC50,HT29 colon cancer cells,300 ± 60 nM
same,IC50,"[6]; MTT, 72 h, read-out: IC50",3000 ± 2000 nM
same,IC50,[12]; [14],400 nM
